Data from patent publication US9481676B2, “Azepino[4,5-B]indoles and methods of use” (Medivation Technologies, Inc., priority 2008, dated 2016).

Columns and labels:
[1] = target: T1, human recombinant histamine H1 receptor (Homo sapiens, UniProt P35367); assay: Histamine H1 radioligand binding ([3H]Pyrilamine); conditions: compound at 1 μM; read-out: Histamine Binding (1 μM) H1, percent inhibition of specific binding
T1 construct: expressed in transfected cells; host or cells: CHO cells
Procedure, shortened: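 Membranes from CHO cells expressing the receptor were incubated with compound and 1.2 nM [3H]pyrilamine for 180 min at 25 °C in 50 mM Tris-HCl pH 7.4 with MgCl2, NaCl and sucrose; 1 μM pyrilamine defined non-specific binding. Filter-bound radioactivity was counted.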

[2] = target: T2, human recombinant serotonin (5-Hydroxytryptamine) 5-HT2A receptor (Homo sapiens, UniProt P28223); assay: Serotonin 5-HT2A radioligand binding ([3H]Ketanserin); conditions: compound at 1 μM; read-out: Serotonin (1 μM) 5-HT2A, percent inhibition of specific binding
T2 construct: expressed in transfected cells; host or cells: CHO-K1 cells
T2 sequence (P28223 whole entry): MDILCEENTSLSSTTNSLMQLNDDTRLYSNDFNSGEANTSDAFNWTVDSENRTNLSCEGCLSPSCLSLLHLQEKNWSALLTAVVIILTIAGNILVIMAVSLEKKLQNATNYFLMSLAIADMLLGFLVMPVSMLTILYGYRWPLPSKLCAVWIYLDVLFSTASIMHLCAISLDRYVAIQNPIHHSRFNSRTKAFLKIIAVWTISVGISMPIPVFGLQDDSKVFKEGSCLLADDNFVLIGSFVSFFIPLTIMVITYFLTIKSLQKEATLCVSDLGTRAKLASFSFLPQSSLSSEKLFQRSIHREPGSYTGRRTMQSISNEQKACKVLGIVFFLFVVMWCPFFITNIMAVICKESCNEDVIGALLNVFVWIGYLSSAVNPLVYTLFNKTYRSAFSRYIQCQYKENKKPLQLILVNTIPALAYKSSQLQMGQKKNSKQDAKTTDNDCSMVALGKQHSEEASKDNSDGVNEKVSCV
Procedure, shortened: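 Percent inhibition of specific [3H]ketanserin (0.5 nM) binding, filtration read-out, with compounds at ≤1 μM (1% DMSO vehicle). Receptor source: recombinant human 5-HT2A in CHO-K1 cells, 50 mM Tris-HCl pH 7.4, 60 min, 25 °C; 1 μM mianserin gives nonspecific binding.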

[3] = target: T3, human recombinant serotonin (5-Hydroxytryptamine) 5-HT2C receptor (Homo sapiens, UniProt P28335); assay: Serotonin 5-HT2C radioligand binding ([3H]Mesulergine); conditions: compound at 1 μM; read-out: Serotonin (1 μM) 5-HT2C, percent inhibition of specific binding
T3 construct: expressed in transfected cells; host or cells: CHO-K1 cells
T3 sequence (P28335 33-458): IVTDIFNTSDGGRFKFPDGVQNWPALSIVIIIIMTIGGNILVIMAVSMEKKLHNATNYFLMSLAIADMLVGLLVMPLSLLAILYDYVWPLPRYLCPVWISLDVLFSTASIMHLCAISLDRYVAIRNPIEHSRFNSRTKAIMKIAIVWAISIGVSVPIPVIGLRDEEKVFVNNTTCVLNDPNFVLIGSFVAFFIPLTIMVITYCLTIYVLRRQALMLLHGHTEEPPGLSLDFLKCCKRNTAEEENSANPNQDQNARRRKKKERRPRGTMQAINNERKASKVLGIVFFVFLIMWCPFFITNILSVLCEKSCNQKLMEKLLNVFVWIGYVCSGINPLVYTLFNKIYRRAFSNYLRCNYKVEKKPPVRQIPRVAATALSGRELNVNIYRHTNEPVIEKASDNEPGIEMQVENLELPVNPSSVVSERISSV
Procedure, shortened: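 Membranes from CHO-K1 cells expressing human 5-HT2C, incubated with 1 nM [3H]mesulergine for 60 min at 25 °C in 50 mM Tris-HCl pH 7.4 with ascorbic acid and pargyline.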

[4] = target: T4, human recombinant serotonin (5-Hydroxytryptamine) 5-HT6 receptor (Homo sapiens, UniProt P50406); assay: Serotonin 5-HT6 radioligand binding ([3H]LSD); conditions: compound at 1 μM; read-out: Serotonin (1 μM) 5-HT6, percent inhibition of specific binding
T4 construct: expressed in transfected cells; host or cells: human HeLa cells
T4 sequence (P50406 whole entry): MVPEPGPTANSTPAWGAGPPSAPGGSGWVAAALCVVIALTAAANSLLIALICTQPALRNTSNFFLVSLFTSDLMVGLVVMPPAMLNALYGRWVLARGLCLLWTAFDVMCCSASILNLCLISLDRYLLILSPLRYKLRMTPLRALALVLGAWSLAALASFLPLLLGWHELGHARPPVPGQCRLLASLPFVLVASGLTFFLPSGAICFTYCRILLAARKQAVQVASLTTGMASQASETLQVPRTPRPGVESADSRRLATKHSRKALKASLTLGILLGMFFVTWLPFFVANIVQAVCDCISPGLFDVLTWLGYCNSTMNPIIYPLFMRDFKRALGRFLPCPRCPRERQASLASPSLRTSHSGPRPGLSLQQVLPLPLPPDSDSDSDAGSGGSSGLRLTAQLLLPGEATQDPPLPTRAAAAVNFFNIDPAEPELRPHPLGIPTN
Procedure, shortened: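 Human recombinant 5-HT6 receptor from HeLa cells incubated with 1.5 nM [3H]LSD for 120 min at 37° C in 50 mM Tris-HCl pH 7.4, 150 mM NaCl, 2 mM ascorbic acid, 0.001% BSA. Nonspecific binding defined with 5 μM serotonin; bound ligand counted after filtration.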

T1 sequence (P35367 whole entry): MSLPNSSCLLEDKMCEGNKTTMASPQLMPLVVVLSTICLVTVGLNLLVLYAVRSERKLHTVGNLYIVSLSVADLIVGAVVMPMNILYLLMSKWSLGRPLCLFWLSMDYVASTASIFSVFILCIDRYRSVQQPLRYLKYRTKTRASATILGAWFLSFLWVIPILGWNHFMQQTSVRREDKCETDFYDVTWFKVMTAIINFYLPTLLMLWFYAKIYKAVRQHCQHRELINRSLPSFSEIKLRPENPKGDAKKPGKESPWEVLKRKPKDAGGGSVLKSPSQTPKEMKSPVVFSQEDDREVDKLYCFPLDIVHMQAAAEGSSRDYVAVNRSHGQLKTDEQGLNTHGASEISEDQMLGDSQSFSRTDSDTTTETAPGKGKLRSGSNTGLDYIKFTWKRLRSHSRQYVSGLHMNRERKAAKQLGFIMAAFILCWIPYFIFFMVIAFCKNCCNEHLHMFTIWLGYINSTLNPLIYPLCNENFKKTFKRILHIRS

Structure (SMILES) | inhibition at 1 µM [1] [%] | inhibition at 1 µM [2] [%] | inhibition at 1 µM [3] [%] | inhibition at 1 µM [4] [%]
Cc1ccc2c(c1)c1c(n2CC(C)(O)c2ccc(F)cc2)CCN(C)CC1 (centres unmarked) [Compound No. 14, 2-(4-fluorophenyl)-1-(2,3,4,5-tetrahydro-3,9-dimethylazepino[4,5-b]indol-6(1H)-yl)propan-2-ol] | 98 | 101 | 95 | 93
Cc1ccc2c(c1)c1c(n2CC(O)c2ccncc2)CCN(C)CC1 (centres unmarked) [Compound No. 43, 2-(2,3,4,5-tetrahydro-3,9-dimethylazepino[4,5-b]indol-6(1H)-yl)-1-(pyridin-4-yl)ethanol] | 100 | 93 | 91 | 48
CN1CCc2c(n(CCc3ccccc3F)c3ccccc23)CC1 [Compound No. 237, 6-(2-fluorophenethyl)-3-methyl-1,2,3,4,5,6-hexahydroazepino[4,5-b]indole] | 96 | 99 | 100 | 103
Cc1ccc(C(O)Cn2c3c(c4cc(C)ccc42)CCN(C)CC3)cc1 (centres unmarked) [Compound No. 27, 2-(2,3,4,5-tetrahydro-3,9-dimethylazepino[4,5-b]indol-6(1H)-yl)-1-p-tolylethanol] | 101 | 99 | 91 | 92
CN1CCc2c(n(CC(O)c3ccncc3)c3ccc(Cl)cc23)CC1 (centres unmarked) [Compound No. 42, 2-(9-chloro-2,3,4,5-tetrahydro-3-methylazepino[4,5-b]indol-6(1H)-yl)-1-(pyridin-4-yl)ethanol] | 103 | 95 | 101 | 73
Cc1ccc2c(c1)c1c(n2CCc2ccccc2F)CCN(C)CC1 [Compound No. 63, 6-(2-fluorophenethyl)-1,2,3,4,5,6-hexahydro-3,9-dimethylazepino[4,5-b]indole] | 99 | 91 | 5 | 101
CN1CCc2c(n(CC(O)c3ccccc3)c3ccc(Cl)cc23)CC1 (centres unmarked) [Compound No. 24, 2-(9-chloro-2,3,4,5-tetrahydro-3-methylazepino[4,5-b]indol-6(1H)-yl)-1-phenylethanol] | 100 | 98 | 95 | 99
Cc1ccc2c(c1)c1c(n2CCc2cncc(Cl)c2)CCN(C)CC1 [Compound No. 4, 6-(2-(5-chloropyridin-3-yl)ethyl)-1,2,3,4,5,6-hexahydro-3,9-dimethylazepino[4,5-b]indole] | 100 | 93 | 89 | 83
Cc1ccc2c(c1)c1c(n2CC(=O)Nc2ccc(F)cc2)CCN(C)CC1 [Compound No. 44, N-(4-fluorophenyl)-2-(2,3,4,5-tetrahydro-3,9-dimethylazepino[4,5-b]indol-6(1H)-yl)acetamide] | 16 | 17 | 41 | 1
CC(C)NC(=O)Cn1c2c(c3cc(Cl)ccc31)CCN(C)CC2 [Compound No. 31, 2-(9-chloro-2,3,4,5-tetrahydro-3-methylazepino[4,5-b]indol-6(1H)-yl)-N-isopropylacetamide] | 14 | 43 | 56 | 2
CN1CCc2c(n(CC(=O)N3CCCCC3)c3ccc(Cl)cc23)CC1 [Compound No. 57, 2-(9-chloro-2,3,4,5-tetrahydro-3-methylazepino[4,5-b]indol-6(1H)-yl)-1-(piperidin-1-yl)ethanone] | 8 | 10 | 65 | -1
